Data on two molecules can be found in article PMC6409975, “Functional Characterization of OXYL, A SghC1qDC LacNAc-specific Lectin from The Crinoid Feather Star Anneissia Japonica” (Marine Drugs, 2019).

Values after ≈ are worked out from the molar mass of the structure shown.

Assay [1] has as its target T1, OXYL (Anneissia japonica, UniProt A0A482DHP7).
T1 construct: signal peptide 1-18 removed; mainly tetramer; HiLyte Fluor 555-labelled for glycan array
The experiment in a line: glycan array, fluorescence-labelled lectin. In kind it is binding. To be noted: immobilised glycan (1 mM spotted); HiLyte Fluor 555-labelled OXYL 0-20 μg/mL; 4 °C overnight; weaker than LNnT.

Assay [2] concerns the target T1, OXYL. The experiment in a line: hemagglutination inhibition, rabbit erythrocytes. The following applies: lectin titer 16; TBS with 0.2% Triton X-100; room temperature, 1 h; glutaraldehyde-fixed trypsinized erythrocytes. In kind it is binding. The source says:
hemagglutination inhibition, rabbit erythrocytes on OXYL

T1 sequence (A0A482DHP7 entry or part of it): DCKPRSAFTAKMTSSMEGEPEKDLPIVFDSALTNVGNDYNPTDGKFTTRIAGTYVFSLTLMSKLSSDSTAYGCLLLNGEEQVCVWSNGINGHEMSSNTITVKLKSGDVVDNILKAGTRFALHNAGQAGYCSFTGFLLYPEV

In the case of `CC(=O)N[C@H]1[C@H]([C@H](O)[C@H](O)CO)O[C@@](O[C@H]2[C@@H](O)[C@@H](CO)O[C@@H](O[C@H]3[C@H](O)[C@@H](NC(C)=O)C(O)O[C@@H]3CO)[C@@H]2O)(C(=O)O)C[C@@H]1O` (some centres unmarked) [compound 2, S3LN], at OXYL [1], the “glycan array, fluorescence-labelled lectin” value is recorded as “OXYL could bind to 3-sialylated LacNAc more strongly than to 6-sialylated LacNAc”.

The molecule `CC(=O)N[C@H]1C(O)O[C@H](CO)[C@@H](O[C@@H]2O[C@H](CO)[C@H](O)[C@H](O)[C@H]2O)[C@@H]1O` (some centres unmarked) [N-acetyllactosamine] registered a Minimum inhibitory conc. on OXYL [2] of 3.13 mM (≈ 1200 µg/mL).
